Data: US20120142771A1, “BIPHENYLACETAMIDE DERIVATIVE” (Dainippon Sumitomo Pharma Co., Ltd., priority 2008, published 2012)

How the values were obtained:
[1] = tested on: maximum electroshock seizure (MES) model; assay: Maximum electroshock seizure (MES) model test; format: in vivo, mice; details: for responders at 100 mg/kg / responders at 50 mg/kg: Mus musculus, po, 1 h, read-out: MES (positive number/tested number) (converted); for responders at 50 mg/kg: 50 mg/kg oral; for anticonvulsant action in maximum electroshock seizure (MES) model test: mice, oral 50 or 100 mg/kg, 1 hour after administration
Source text: In order to evaluate the antiepileptic activity of each drug, maximum electroshock seizure (MES) model, subcutaneously pentetrazol-injected model (scPTZ), and amygdala kindling model in rats were used because they show a good clinical prediction.
Test 1: Test with Maximum Electroshock Seizure (MES) Model
Test 1 evaluates the anticonvulsant action of medicaments. Animal model used herein represents the clinical phenotypes of generalized tonic seizure and secondarily generalized tonic-clonic seizure. Test compounds (50 or 100 mg/kg) were orally administered to Slc: ddY male mice (3 mice in each group, body weight 20-30 g). After an hour of administration, their corneas were electrically stimulated (60 Hz, 25 mA, 0.2 second) to induce tonic convulsion (tonic extensor in their hind limbs). […] To the control mice, 0.5% tragacanth solution or 0.5% methylcellulose solution was administered.

[2] = tested on: subcutaneously pentetrazol-injected model (scPTZ); assay: Subcutaneously pentetrazol-injected model (scPTZ) test; format: in vivo, mice; details: pentetrazol 85 mg/kg s.c. after 1 hour; for scPTZ (positive number/tested number) / responders at 100 mg/kg: 100 mg/kg oral; for scPTZ (positive number/tested number) / responders at 50 mg/kg / responders at 100 mg/kg: Slc: ddY male mice, 3 per group, observed 30 minutes for clonic convulsion; for responders at 50 mg/kg / responders at 100 mg/kg: Mus musculus, po, 1 h, read-out: scPTZ (positive number/tested number) (converted); for responders at 50 mg/kg: 50 mg/kg oral; for anticonvulsant action in subcutaneously pentetrazol-injected model (scPTZ) test: mice, oral 50 or 100 mg/kg
Source text: In order to evaluate the antiepileptic activity of each drug, maximum electroshock seizure (MES) model, subcutaneously pentetrazol-injected model (scPTZ), and amygdala kindling model in rats were used because they show a good clinical prediction. […] Test with Subcutaneously Pentetrazol-Injected Model (scPTZ) Similar to Test 1, Test 2 evaluates the anticonvulsant action of medicaments. However, unlike Test 1, animal model used herein represents the clinical phenotypes of generalized absence seizure and myoclonic seizure. Test compounds (50 or 100 mg/kg) were orally administered to Slc: ddY male mice (3 mice in each group, body weight 20-30 g). After an hour, pentetrazol (85 mg/kg) was subcutaneously administered. […] To the control mice, 0.5% tragacanth solution or 0.5% methylcellulose solution was administered.

[3] = 100 mg/kg oral, Slc: ddY male mice, 3 per group, electrical stimulation 1 hour after administration, inhibition of hind limb extension
[4] = Slc: ddY male mice, 3 per group, electrical stimulation 1 hour after administration, inhibition of hind limb extension

SMILES	responders at 100 mg/kg [1, 3]	scPTZ (positive number/tested number) [2]	responders at 50 mg/kg [1, 4]	responders at 50 mg/kg [2]	responders at 100 mg/kg [2]	anticonvulsant action in maximum electroshock seizure (MES) model test [1]	anticonvulsant action in subcutaneously pentetrazol-injected model (scPTZ) test [2]	MES (positive number/tested number) [1, 3]
CS(=O)(=O)c1ccc(-c2ccccc2CC(N)=O)cc1 [Example 77]	0%	2/3	–	–	–	–	–	–
NC(=O)Cc1ccccc1-c1cccc(OC(F)(F)F)c1 [Example 79, 2-[3′-(trifluoromethoxy)biphenyl-2-yl]acetamide]	100%	–	33.3%	33.3%	100%	–	–	–
Cc1cc(Cl)cc(-c2ccccc2CC(N)=O)c1F [Example 81]	33.3%	–	–	–	0%	–	–	–
NC(=O)Cc1ccccc1-c1cc(F)ccc1C(F)(F)F [Example 82]	33.3%	–	–	–	100%	–	–	–
NC(=O)Cc1ccccc1-c1cc(C(F)(F)F)ccc1F [Example 83, 2-[2′-fluoro-5′-(trifluoromethyl)biphenyl-2-yl]acetamide]	66.7%	–	0%	33.3%	66.7%	–	–	–
NC(=O)Cc1ccccc1-c1ccc(C(F)(F)F)cc1Cl [Example 84, 2-[2′-chloro-4′-(trifluoromethyl)biphenyl-2-yl]acetamide]	66.7%	–	0%	33.3%	66.7%	–	–	–
NC(=O)Cc1ccccc1-c1cccc(Cl)c1F [Example 85]	100%	–	–	–	33.3%	–	–	–
NC(=O)Cc1ccccc1-c1cc(Cl)ccc1F [Example 87, 2-(5′-chloro-2′-fluorobiphenyl-2-yl)acetamide]	100%	–	33.3%	0%	66.7%	–	–	–
NC(=O)Cc1ccccc1-c1ccc(F)c(F)c1F [Example 89, 2-(2′,3′,4′-trifluorobiphenyl-2-yl)acetamide]	100%	–	0%	33.3%	66.7%	–	–	–
NC(=O)Cc1ccccc1-c1cc(F)c(F)c(F)c1 [Example 90, 2-(3′,4′,5′-trifluorobiphenyl-2-yl)acetamide]	66.7%	–	66.7%	66.7%	66.7%	anticonvulsant action was observed	anticonvulsant action was observed	–
CS(=O)(=O)c1ccc(-c2ccccc2CC(N)=O)cc1 [Example 92]	–	1/3	–	–	–	–	–	0/3
NC(=O)Cc1ccccc1-c1cc(Cl)ccc1Cl [Example 95, 2-(2′,5′-dichlorobiphenyl-2-yl)acetamide]	66.7%	–	33.3%	0%	100%	–	–	–
NC(=O)Cc1ccccc1-c1cc(C(F)(F)F)ccc1Cl [Example 96]	33.3%	–	–	–	66.7%	–	–	–
CNC(=O)Cc1ccccc1-c1ccc(C(F)(F)F)cc1F [Example 97]	66.7%	–	33.3%	–	33.3%	–	–	–
CNC(=O)Cc1ccccc1-c1cccc(C(F)(F)F)c1F [Example 98]	66.7%	–	0%	–	0%	–	–	–
CNC(=O)Cc1ccccc1-c1cccc(OC(F)(F)F)c1 [Example 99, N-methyl-2-[3′-(trifluoromethoxy)biphenyl-2-yl]acetamide]	100%	–	66.7%	–	33.3%	–	–	–
CNC(=O)Cc1ccccc1-c1cccc(SC)c1 [Example 100]	0%	–	–	–	100%	–	–	–
CNC(=O)Cc1ccccc1-c1cc(F)ccc1C(F)(F)F [Example 101]	100%	–	–	–	0%	–	–	–
CNC(=O)Cc1ccccc1-c1cc(F)cc(C(F)(F)F)c1 [Example 102]	0%	–	–	–	66.7%	–	–	–
CNC(=O)Cc1ccccc1-c1ccc(OC(F)(F)F)cc1 [Example 103]	100%	–	–	–	33.3%	–	–	–
CNC(=O)Cc1ccccc1-c1ccc(F)cc1C(F)(F)F [Example 104]	100%	–	–	–	0%	–	–	–

SMILES	responders at 100 mg/kg [1, 3]	scPTZ (positive number/tested number) [2]	responders at 50 mg/kg [1, 4]	responders at 50 mg/kg [2]	responders at 100 mg/kg [2]	anticonvulsant action in maximum electroshock seizure (MES) model test [1]	anticonvulsant action in subcutaneously pentetrazol-injected model (scPTZ) test [2]	MES (positive number/tested number) [1, 3]
CNC(=O)Cc1ccccc1-c1ccc(Cl)cc1C(F)(F)F [Example 105]	0%	–	–	–	66.7%	–	–	–
N#Cc1ccc(-c2ccccc2CC(N)=O)c(F)c1 [Example 106]	0%	–	–	–	66.7%	–	–	–
N#Cc1ccc(Cl)cc1-c1ccccc1CC(N)=O [Example 107]	0%	–	–	–	100%	–	–	–
N#Cc1c(-c2ccccc2CC(N)=O)cccc1C(F)(F)F [Example 108]	0%	–	–	–	66.7%	–	–	–
NC(=O)Cc1cc(Cl)ccc1-c1ccc(Cl)cc1 [Example 109, 2-(4,4′-dichlorobiphenyl-2-yl)acetamide]	100%	–	100%	66.7%	100%	anticonvulsant action was observed	anticonvulsant action was observed	–
NC(=O)Cc1cc(F)c(F)cc1-c1ccccc1 [Example 110]	66.7%	–	0%	–	33.3%	–	–	–
Cc1ccc(-c2ccccc2)c(CC(N)=O)c1 [Example 111]	0%	–	–	33.3%	66.7%	–	–	–
NC(=O)Cc1ccc([N+](=O)[O-])cc1-c1ccccc1 [Example 112]	33.3%	–	–	33.3%	66.7%	–	–	–
NC(=O)Cc1ccc([N+](=O)[O-])cc1-c1ccccc1F [Example 113, 2-(2′-fluoro-5-nitrobiphenyl-2-yl)acetamide]	100%	–	66.7%	–	33.3%	–	–	–
NC(=O)Cc1cc(F)ccc1-c1ccc(F)cc1 [Example 114, 2-(4,4′-difluorobiphenyl-2-yl)acetamide]	100%	–	100%	–	33.3%	–	–	–
CNC(=O)Cc1cc(F)ccc1-c1ccc(F)cc1 [Example 115, 2-(4,4′-difluorobiphenyl-2-yl)-N-methylacetamide]	100%	–	100%	–	0%	–	–	–
NC(=O)Cc1cc(C(F)(F)F)ccc1-c1ccccc1 [Example 116]	0%	–	–	33.3%	66.7%	–	–	–
CNC(=O)Cc1cc(C(F)(F)F)ccc1-c1ccccc1 [Example 117]	0%	–	–	33.3%	66.7%	–	–	–
NC(=O)Cc1c(F)cccc1-c1ccccc1 [Example 118, 2-(3-fluorobiphenyl-2-yl)acetamide]	100%	–	100%	–	33.3%	–	–	–
CNC(=O)Cc1c(F)cccc1-c1ccccc1 [Example 119, 2-(3-fluorobiphenyl-2-yl)-N-methylacetamide]	100%	–	100%	–	0%	–	–	–
NC(=O)Cc1ccc(F)cc1-c1cccc(F)c1 [Example 120]	100%	–	0%	–	33.3%	–	–	–
CNC(=O)Cc1ccc(F)cc1-c1cccc(F)c1 [Example 121]	100%	–	0%	–	33.3%	–	–	–
NC(=O)Cc1ccc(F)cc1-c1ccc(F)cc1 [Example 122]	0%	–	–	0%	66.7%	–	–	–
NC(=O)Cc1ccc(Cl)cc1-c1ccccc1 [Example 123]	100%	–	–	–	33.3%	–	–	–
CNC(=O)Cc1ccc(Cl)cc1-c1ccccc1 [Example 124, 2-(5-chlorobiphenyl-2-yl)-N-methylacetamide]	100%	–	0%	0%	100%	–	–	–
